Results on nine molecules are retold here after patent US9963464B2, “Macrocyclic compounds” (Bayer Pharma Aktiengesellschaft, priority 2014, dated 2018).

Data set [1] is described as follows: In vivo pharmacokinetics in rats. Conditions: male, Wistar, rat, plasma, iv, i.v. bolus dosing, read-out: t1/2: terminal half-life (converted). As to the method: 7. In Vivo Pharmacokinetics in Rats
For in vivo pharmacokinetic experiments test compounds were administered to male Wistar rats intravenously at doses of 0.3 to 1 mg/kg formulated as solutions using either rat plasma or solubilizers such as PEG400 in well-tolerated amounts.
For pharmacokinetics after intravenous administration test compounds were given as i.v. bolus and blood samples were taken at 2 min, 8 min, 15 min, 30 min, 45 min, 1 h, 2 h, 4 h, 6 h, 8 h and 24 h after dosing. […] Blood was collected into Lithium-Heparin tubes (Monovetten®, Sarstedt) and centrifuged for 15 min at 3000 rpm. An aliquot of 100 μL from the supernatant (plasma) was taken and precipitated by addition of 400 μL ice cold acetonitrile and frozen at −20 OC over night. Samples were subsequently thawed and centrifuged at 3000 rpm, 4° C. for 20 minutes. Aliquots of the supernatants were taken for analytical testing using an Agilent 1200 HPLC-system with LCMS/MS detection. PK parameters were calculated by non-compartmental analysis using a PK calculation software.
PK parameters derived from concentration-time profiles after i.v.: CLplasma: Total plasma clearance of test compound (in L/kg/h); CLblood: Total blood clearance of test compound: CLplasma*Cp/Cb (in L/kg/h) with Cp/Cb being the ratio of concentrations in plasma and blood, AUCnorm: Area under the concentration-time curve from t=0 h to infinity (extrapolated) divided by the administered dose (in kg*h/L); t1/2: terminal half-life (in h).

A further data set has as its system rat hepatocytes. The data set is described as follows: In vitro metabolic stability in rat hepatocytes. The format is in vitro ADME. Conditions: 1 μM. As to the method: 6. Investigation of In Vitro Metabolic Stability in Rat Hepatocytes
Hepatocytes from Han Wistar rats were isolated via a 2-step perfusion method. After perfusion, the liver was carefully removed from the rat: the liver capsule was opened and the hepatocytes were gently shaken out into a Petri dish with ice-cold Williams medium E (purchased from Sigma Aldrich Life Science, St Louis, Mo.). The resulting cell suspension was filtered through sterile gaze in 50 ml falcon tubes and centrifuged at 50×g for 3 min at room temperature. The cell pellet was resuspended in 30 ml WME and centrifuged through a Percoll® gradient for 2 times at 100×g. The hepatocytes were washed again with Williams' medium E (WME) and resuspended in medium containing 5% Fetal calf serum (FCS, purchased from Invitrogen, Auckland, NZ). Cell viability was determined by trypan blue exclusion.
For the metabolic stability assay liver cells were distributed in WME containing 5% FCS to glass vials at a density of 1.0×10^6 vital cells/ml. The test compound was added to a final concentration of 1 μM. During incubation, the hepatocyte suspensions were continuously shaken and aliquots were taken at 2, 8, 16, 30, 45 and 90 min, to which equal volumes of cold acetonitrile were immediately added. Samples were frozen at −20° C. over night, after subsequently centrifuged for 15 minutes at 3000 rpm and the supernatant was analyzed with an Agilent 1200 HPLC-system with LCMS/MS detection.
The half-life of a test compound was determined from the concentration-time plot. From the half-life the intrinsic clearances were calculated.

Another data set can be described thus: Caco-2 permeation assay. The format is in vitro ADME. Particulars: human, pH 7.2, Caco-2 monolayer, 2 μM test compound; for Papp A→B at 2 h, 2 μM: read-out: Papp A-B (Mari); for Papp B→A at 2 h, 2 μM: read-out: Papp B-A (Mari); for efflux ratio at 2 h, 2 μM: read-out: Efflux ratio (Papp B-A/Papp A-B). The procedure: 5. Caco-2 Permeation Assay:
Caco-2 cells (purchased from DSMZ Braunschweig, Germany) were seeded at a density of 4.5×10^4 cells per well on 24 well insert plates, 0.4 μm pore size, and grown for 15 days in DMEM medium supplemented with 10% fetal bovine serum, 1% GlutaMAX (100×, GIBCO), 100 U/mL penicillin, 100 μg/mL streptomycin (GIBCO) and 1% non essential amino acids (100×). Cells were maintained at 37° C. in a humidified 5% CO2 atmosphere. Medium was changed every 2-3 day. Before running the permeation assay, the culture medium was replaced by a FCS-free hepes-carbonate transport buffer (pH 7.2). For assessment of monolayer integrity the transepithelial electrical resistance (TEER) was measured. Test compounds were predissolved in DMSO and added either to the apical or basolateral compartment in final concentration of 2 μM in transport buffer. Before and after 2 h incubation at 37° C. samples were taken from both compartments. Analysis of compound content was done after precipitation with methanol by LC/MS/MS analysis. Permeability (Papp) was calculated in the apical to basolateral (A→B) and basolateral to apical (B→A) directions. The apparent permeability was calculated using following equation: Papp=(Vr/Po)(1/S)(P2/t) Where Vr is the volume of medium in the receiver chamber, Po is the measured peak area or height of the test drug in the donor chamber at t=o, S the surface area of the monolayer, P2 is the measured peak area of the test drug in the acceptor chamber after 2 h of incubation, and t is the incubation time. The efflux ratio basolateral (B) to apical (A) was calculated by dividing the Papp B-A by the Papp A-B. In addition the compound recovery was calculated.
For orientation: Caco-2 monolayers are a common model of the intestinal barrier.

In general, Papp A→B refers to how fast a substance crosses the layer from the apical side. As a reminder, the Papp B→A is the apparent permeability from the basolateral to the apical side of a cell layer. As for `CS(=N)(=O)Cc1cc2cc(c1)OCCCCOc1cc(F)ccc1-c1nc(ncc1F)N2` (racemic) [Example 1, (rac)-16,20-Difluoro-9-[(S-methylsulfonimidoyl)methyl]-2,3,4,5-tetrahydro-12H-13,17-(azeno)-11,7-(metheno)-1,6,12,14-benzodioxadiazacyclononadecine], the half-life in data set [1] was 2.2 h. In the data set on rat hepatocytes, the “maximal calculated oral bioavailability (Fmax) based on stability data in rat hepatocytes” value (“maximal calculated oral bioavailability” below) is 69%. Besides, in the data set “Caco-2 permeation assay”, the apical-to-basolateral permeability (Papp A→B) at 2 h, 2 μM is 13.9 ×10⁻⁶ cm/s; the Papp B→A at 2 h, 2 μM was 19.7 ×10⁻⁶ cm/s; the efflux ratio at 2 h, 2 μM was determined as 1.4.
`CS(=N)(=O)Cc1cc2nc(c1)OCCCOc1cc(F)ccc1-c1cc(ncc1F)N2` (racemic) [Example 5, (rac)-15,19-Difluoro-8-[(S-methylsulfonimidoyl)methyl]-3,4-dihydro-2H,11H-10,6-(azeno)-12,16-(metheno)-1,5,11,13-benzodioxadiazacyclooctadecine]: in data set [1], the half-life is 7.2 h. Moreover, the “maximal calculated oral bioavailability” value in the data set on rat hepatocytes is listed as 62%. In the data set “Caco-2 permeation assay”, the apical-to-basolateral permeability (Papp A→B) at 2 h, 2 μM is 4.7 ×10⁻⁶ cm/s; the basolateral-to-apical permeability (Papp B→A) at 2 h, 2 μM was determined as 4.3 ×10⁻⁶ cm/s; the efflux ratio at 2 h, 2 μM was determined as 0.91.
Take `CS(=N)(=O)Cc1cc2cc(c1)OCCCOc1cc(F)ccc1-c1nc(ncc1F)N2` (racemic) [Example 15, (rac)-15,19-difluoro-8-[(S-methylsulfonimidoyl)methyl]-3,4-dihydro-2H,11H-12,16-(azeno)-10,6-(metheno)-1,5,11,13-benzodioxadiazacyclooctadecine]: the half-life in data set [1] was 4.9 h. Moreover, the “maximal calculated oral bioavailability” value in the data set with rat hepatocytes is listed as 76%.
In the case of `CCNC(=O)N=S(C)(=O)Cc1cc2nc(c1)OCCCOc1cc(F)ccc1-c1cc(ncc1F)N2` (racemic) [Example 17, (rac)-1-[{[15,19-difluoro-3,4-dihydro-2H,11H-10,6-(azeno)-12,16-(metheno)-1,5,11,13-benzodioxadiazacyclooctadecin-8-yl]methyl}(methyl)oxido-λ^6-sulfanylidene]-3-ethylurea], in the data set “Caco-2 permeation assay”, the Papp A→B at 2 h, 2 μM is 8.7 ×10⁻⁶ cm/s; the Papp B→A at 2 h, 2 μM amounted to 8.8 ×10⁻⁶ cm/s; the efflux ratio at 2 h, 2 μM turned out to be 1.
`CS(=O)(=O)N=S(C)(=O)Cc1cc2nc(c1)OCCCOc1cc(F)ccc1-c1cc(ncc1F)N2` (racemic) [Example 22, (rac)-N-[{[15,19-difluoro-3,4-dihydro-2H,11H-10,6-(azeno)-12,16-(metheno)-1,5,11,13-benzodioxadiazacyclooctadecin-8-yl]methyl}(methyl)oxido-λ^6-sulfanylidene]methanesulfonamide]: in the data set “Caco-2 permeation assay”, the Papp A→B at 2 h, 2 μM came to 8.2 ×10⁻⁶ cm/s; the Papp B→A at 2 h, 2 μM is 12.6 ×10⁻⁶ cm/s; the efflux ratio at 2 h, 2 μM is 1.5.
Regarding `CS(=O)(Cc1cc2nc(c1)OCCCOc1cc(F)ccc1-c1cc(ncc1F)N2)=NS(=O)(=O)CCN` (racemic) [Example 23, (rac)-2-amino-N-[{[15,19-difluoro-3,4-dihydro-2H,11H-10,6-(azeno)-12,16-(metheno)-1,5,11,13-benzodioxadiazacyclooctadecin-8-yl]methyl}(methyl)oxido-λ^6-sulfanylidene]ethanesulfonamide], in the data set “Caco-2 permeation assay”, the apical-to-basolateral permeability (Papp A→B) at 2 h, 2 μM turned out to be 0.6 ×10⁻⁶ cm/s; the apparent permeability from basolateral to apical (Papp B→A) at 2 h, 2 μM was 44.2 ×10⁻⁶ cm/s; the efflux ratio at 2 h, 2 μM was determined as 69.7.
The corresponding values for `CS(=O)(Cc1cc2nc(c1)OCCCOc1cc(F)ccc1-c1cc(ncc1F)N2)=NC(=O)OCCN` (racemic) [Example 25, (rac)-2-aminoethyl [{[15,19-difluoro-3,4-dihydro-2H,11H-10,6-(azeno)-12,16-(metheno)-1,5,11,13-benzodioxadiazacyclooctadecin-8-yl]methyl}(methyl)oxido-λ^6-sulfanylidene]carbamate] are 0.4 ×10⁻⁶ cm/s, 26.2 ×10⁻⁶ cm/s and 74.5.
In the case of `CS(=O)(=O)Cc1cc2nc(c1)OCCCOc1cc(F)ccc1-c1cc(ncc1F)N2` [Example 8, 15,19-difluoro-8-[(methylsulfonyl)methyl]-3,4-dihydro-2H,11H-10,6-(azeno)-12,16-(metheno)-1,5,11,13-benzodioxadiazacyclooctadecine], in “Caco-2 permeation assay”, the Papp A→B at 2 h, 2 μM worked out at 6.7 ×10⁻⁶ cm/s; the basolateral-to-apical permeability (Papp B→A) at 2 h, 2 μM was found to be 5.5 ×10⁻⁶ cm/s; the efflux ratio at 2 h, 2 μM worked out at 0.8.
On the same counts, the results for `NCCS(=O)(=O)Cc1cc2nc(c1)OCCCOc1cc(F)ccc1-c1cc(ncc1F)N2` [Example 26, 2-({[15,19-difluoro-3,4-dihydro-2H,11H-10,6-(azeno)-12,16-(metheno)-1,5,11,13-benzodioxadiazacyclooctadecin-8-yl]methyl}sulfonyl)ethanamine] are 1.2 ×10⁻⁶ cm/s, 7.6 ×10⁻⁶ cm/s and 6.5.
